Compound | melting point [°C]
COCC(=O)Nc1cc(C#N)cc(NC(=O)COC)c1Cl | 173 to 174
CCOC(=O)CNC(=O)Oc1ccc([N+](=O)[O-])c2cccnc12 | 121 to 122
CN(c1ccnc(Cl)n1)n1cccc1 | 102 to 103
Cc1nn(-c2cc(Oc3ccc([N+](=O)[O-])cc3Cl)c(Cl)cc2Cl)c(=O)n1C(F)F | 135 to 136
CCOC(=O)C1=C(C)NC(CSCCOC(C)=O)=C(C(=O)OCC)C1c1cccc([N+](=O)[O-])c1 (stereo unspecified) | 84 to 86
O=C(C=Cc1cccc(O)c1)C=Cc1cccc(O)c1 | 190 to 195
CONC(=O)C(Cc1ccccc1)N(C)C(=O)C1CCCCC1C(=O)O (stereo unspecified) | 168 to 171
CCCCN1CCC(CCC(=O)c2ccc(N)nc2OC)CC1 | 85 to 89
O=[N+]([O-])c1nccn1C1CCCCO1 (stereo unspecified) | 50
O=S1(=O)c2cccc3cccc(c23)N1CCCCN1CC=C(c2ccc(Cl)cc2)CC1 | 12
Cc1ccc(S(=O)(=O)OCC2COc3cc(C)ccc3O2)cc1 (stereo unspecified) | 84
CCC(C)C(NC(=O)C(CSC(C)=O)C(F)(F)F)C(=O)O (stereo unspecified) | 81 to 85
Cc1ccc(-c2c(NS(=O)(=O)c3ccc(C(C)(C)C)cc3)nc(C(C)C)nc2OCCO)cc1 | 143 to 144
CC(OC(=O)N(C(C)C)C(C)C)c1ccccc1[N+](=O)[O-] (stereo unspecified) | 40 to 41
CCOc1cc([N+](=O)[O-])ccc1NC(C)=O | 164 to 165
CCn1c(=O)n(CC(C)(C)O)c(=O)c2[nH]cnc21 | 217 to 219
CCOC(=O)c1[nH]c2cc(Cl)cc(Cl)c2c1I | 218 to 220
N#Cc1ccc2oc3c(c2c1)CCC(C(=O)O)C3 (stereo unspecified) | 185 to 190
CCOC(=O)c1ccc(NC(=O)C=Cc2ccc3ccccc3c2)cc1 | 173 to 175
O=C(O)CCCCOc1ccc(OCc2ccccc2)cc1 | 127 to 128
CCOc1ccc(C2=NN(c3ccc(S(=O)(=O)O)cc3)C(=O)[C@H]3CC=CC[C@@H]23)cc1OCC (relative stereo) | 65 to 69

Compound | melting point [°C]
CCOC(=O)c1cnn2c1c(Cl)nc1c(C)nn(C)c12 | 130 to 132
CCOC(=O)c1ccc(C(=O)c2ccc(OC)cc2)cc1 | 74 to 81
C=C(C)C(=O)OCCCCCCOc1ccc(/C=C/C(=O)OC)cc1 | 45 to 50
Nc1cc(-c2ccoc2)ccc1Nc1cccc(-n2ccnc2)c1 | 188 to 189
CCCc1csc(/C=C/c2cccc(NCCCC(=O)O)c2)n1 | 115 to 116
CNc1ccc(-c2ncn(-c3ccc(C(F)(F)F)cc3)n2)cc1 | 106 to 113
CN(CCc1ccccn1)C(=O)CCSc1cc(Cl)c(O)c(Cl)c1 | 120 to 123
Cc1c(SCCSCCn2c([N+](=O)[O-])cnc2C)ccnc1CNc1cnc2ccccc2c1 | 152 to 154
C=Cc1ccc2[nH]cc(S(=O)(=O)c3ccccc3)c2c1 | 140 to 145
O=C(O)C(=NOCc1cccnc1)c1csc(NC(c2ccccc2)(c2ccccc2)c2ccccc2)n1 | 192
Cc1ccc2nc(C3(c4ccc(S(N)(=O)=O)cc4)C=C(C(F)(F)C(F)(F)F)NN3)sc2c1 (stereo unspecified) | 234 to 235
CCC(=O)NCCC1CCc2cc(Br)c3c(c21)CC(C)(C)O3 (stereo unspecified) | 98 to 101
CC(C)Cn1c(=O)n(C)c(=O)c2c(Sc3cccc(O)c3)n(Cc3cccc4ccccc34)cc21 | 150 to 151
C=C(C)C(=O)Oc1ccc(N(C)S(C)(=O)=O)cc1 | 126 to 127
CC(=O)c1ccc(O)c(CC#N)c1 | 154 to 168
CCOC(OCC)c1nc(N)nc(N)c1-c1ccc(Cl)cc1Cl | 225
COC(=O)CCCCCCCNC(=O)C(CO)NS(=O)(=O)c1ccc(Cl)cc1 (racemic) | 88 to 92
CNC(C(=O)NC(N)=O)C(=S)c1cccc2c(C(F)(F)F)c(OC)ccc12 (stereo unspecified) | 203 to 204
COC(=O)C(=O)CC(=O)c1ccc(C2CCCCC2)cc1 | 96 to 98
CC(C)=CCCC(C)=CCCC(C)=CCCC(C)=CC=CC(C)=CC(=O)O | 45.5 to 46.5
O=C(/C=C/c1ccccc1Sc1ccc(Cl)cc1Cl)NCCCCO | 68 to 71

Compound | melting point [°C]
Cn1c(CO)nc2c(N)cc(Br)cc21 | 216 to 218
Cc1ccccc1CC[C@H]([C@H](C)O)n1cnc(C(N)=O)c1 | 60 to 62
CCOC(=O)C(Cc1ccc(C)c(OC(F)(F)C(F)F)c1)C(=O)c1ccc(F)cc1 (stereo unspecified) | 52 to 53
CCOC(=O)Cc1ccnc(-c2nn(C(C)(C)C)c(N)c2C#N)c1 | 141 to 143
COc1ccc(S(=O)(=O)n2ccc3ccnc(-c4ccco4)c32)cc1 | 127 to 130
COC(=O)c1ccncc1SCc1ccccc1 | 80
O=[N+]([O-])c1ccc(C#Cc2ccccc2)c(-c2cc([N+](=O)[O-])ccc2C#Cc2ccccc2)c1 | 216 to 218
COc1cc(C=Cc2cc(=O)n3cccc(C)c3n2)cc(OC)c1OC | 208 to 210
COc1ccc(CC(C)(N)C(=O)O)cc1 (stereo unspecified) | 243 to 244
Nc1ncccc1OCc1ccccc1Cl | 95 to 100
CCOC(=O)C1=C(COCCN)NC(C)=C(C(=O)OC)C1c1cccc(C(F)(F)F)c1Cl (stereo unspecified) | 122
CC(O)c1cccc(Oc2ncccc2OCCCc2ccncc2)c1 (stereo unspecified) | 93 to 97
CCCCSc1cc(C(=O)O)cc([N+](=O)[O-])c1-c1ccccc1 | 147 to 148
COc1ccc(N=C(C#CSc2ccccc2)N2CCN(C)CC2)cc1 | 160
CS(=O)(=O)c1ccc(-c2cnn(CC(F)(F)F)c(=O)c2Nc2ccc(F)cc2F)cc1 | 170 to 175
Cc1ccc(S(=O)(=O)Nc2cc(CC(C)C)c([N+](=O)[O-])cc2Br)cc1 | 170
CC12C=CC(=O)C=C1CCC1C2CCC2(C)C1CCC21CC(=O)CO1 (stereo unspecified) | 147 to 153
CON1CCN2C(=O)C(c3c(C)cc(C)cc3C)C(=O)N2CC1 | 229 to 230
CCOC(=O)c1cc2c(C)ccc(OCCO)c2[nH]1 | 166 to 167

Now from value to compound:

melting point [°C] | Compound
288 to 289 | O=c1[nH]c2cc(Cl)ccc2c(=O)n1Cc1ccc(Br)cc1F
198 to 201 | O=C1Nc2cc(Cl)c(Cl)cc2C1c1ccccc1Cl (stereo unspecified)
231 to 233 | CCCCc1nc2c(N)nc3ccccc3c2n1CC(C)(C)C(N)=O
159 to 160 | COc1cc(OC)c(C(=O)Nc2cccc3c2CCN(C)C3)cc1OC
82 to 83 | Cc1cccc(C)c1C(=O)OC1CCCCC1=O (stereo unspecified)
187 to 190 | O=[N+]([O-])c1ccc(CN2CCC(c3cc(-c4ccc(Cl)cc4)[nH]n3)CC2)cc1
240 to 246 | O=c1[nH]cnc2ccc(-c3cccnc3)cc12
217 to 219 | O=[N+]([O-])c1cnn2c1-c1ccccc1NC2c1ccc(Cl)cc1 (stereo unspecified)
142 | Cc1cn(C2CC(O[Si](c3ccccc3)(c3ccccc3)C(C)(C)C)C(CI)O2)c(=O)[nH]c1=O (stereo unspecified)
175 to 180 | Cc1cc(C(=O)CCc2cc(-c3ccc(C(F)(F)F)cc3)nn2Cc2ccccc2)ccc1OCC(=O)O
284 | O=C(O)c1ccc(C(=O)O)c(-c2nc3ccccc3o2)c1
200 | CS(=O)(=O)C(=C1CN(C(c2ccc(Cl)cc2)c2ccc(Cl)cc2)C1)c1cc(F)cc(F)c1
101 to 102 | Cc1oc(-c2ccccc2)nc1C(C)O (stereo unspecified)
207 to 208 | O=C(O)c1c[nH]c(=S)n1C1CCc2cc(F)cc(F)c2C1 (stereo unspecified)
299 to 302 | O=c1[nH]c2cc(Cl)cc(Cl)c2c(=O)n1Cc1cccc(I)c1
175 to 177 | COc1ccc2[nH]c3c(c2c1)C(C(=O)O)CCC3 (stereo unspecified)
154 to 156 | O=C(CSc1ccc(Cl)cc1C(=O)O)c1ccccc1
148 | CCOC(=O)Cc1sc(C(C)(C)c2c(Cl)cc(-n3ncc(=O)[nH]c3=O)cc2Cl)nc1-c1ccccc1
151 to 152 | c1ccc(-c2ccc3nc(-c4ccccc4)oc3n2)cc1
160 to 162 | Cc1ccc(NC(=O)N2CCN(CCc3ccc(-c4cccc(N)n4)cc3)CC2)cc1

melting point [°C] | Compound
143 to 144 | CC1CCCCC1OC(=O)c1cc(NCSc2ccccc2)ccc1Cl (stereo unspecified)
192 | CN(c1cccc2cc(-c3nccs3)[nH]c12)S(=O)(=O)c1ccsc1CO
188 to 189 | O=C1CCN(Cc2ccc3ccccc3n2)CC1C(c1ccc(F)cc1)c1ccc(F)cc1 (stereo unspecified)
140 | Cc1nnc(NCc2ccccc2)s1
183 to 185 | O=C1c2c(F)cc(F)c(F)c2C(=O)N1c1ccccc1
206 to 211 | CC(C)NC(=O)C(Cc1ccccc1)NC(=O)Nc1n[nH]c(=S)s1 (stereo unspecified)
106 to 107 | CCOc1ccc(-c2nc(-c3cc4c(c(C(=O)O)c3)OC(C)(C)C4)cs2)cc1OCC
274 to 277 | O=c1nc(-c2ccccc2F)c2c3c(sc2[nH]1)CCCC3
115 to 116 | CCOC(=O)c1cccc2nc3cc(C(=O)c4ccccc4)ccc3nc12
150 to 151 | CCOC(=O)CCCN(C(=O)CN(C(=O)c1ccc(Cl)cc1)c1c(C)cccc1C)c1c(C)cccc1C
98 | CON1C(=O)CC2(CCN(C(=O)OCc3ccccc3)CC2)C1=O
164 to 165 | O=C(O)c1cccc(-c2ccc3c(c2)C(Nc2ccc(Cl)cc2Cl)CO3)c1 (stereo unspecified)
161 to 162 | O=C(Nc1ccc(OCCN2CCCC2=O)c2ccccc12)c1cc(F)cc(N2CCCCC2)c1
168 to 169 | Fc1ccc(CN2CCC(Nc3ccc(C(F)(F)F)nn3)CC2)cc1F
245 | COc1ccc(CNc2nc(-c3ccc(C(=O)O)cc3)nc3scc(C)c23)cc1Cl
100 to 102 | COC(=O)c1ccnc(N2CCN(Cc3ccccn3)C2=O)c1
210 to 212 | Cc1cn(C[C@H]2CN(c3ccc(-c4ccc(C#N)nc4)c(F)c3)C(=O)O2)nn1
249 to 251 | COc1cccc2c1CC(n1cc[nH]c1=S)CC2 (stereo unspecified)
145 to 148 | O=c1cc(Oc2c(Cl)cccc2Cl)c2cc(OC(F)F)ccc2o1
> 250 | Cn1cncc1C(O)(c1ccc(Cl)cc1)c1ccc2[nH]c(=O)cc(-c3cccnc3)c2c1 (stereo unspecified)

— a melting point compilation (Tetko et al.; mined from patent text by program, amines drawn as free bases though some values may be those of a salt)
